From patent US7879829B2, “19-nor-vitamin D analogs with 1,2-dihydrofuran ring” (Wisconsin Alumni Research Foundation, priority 2008, dated 2011) come the findings set out here.

“Also recorded” adds a separate entry of the source. Read-outs that look alike come from different tables or passages of the source.

The subject of test [1] is bone calcium mobilization. Nature of the test: Bone calcium mobilization (serum calcium). It counts as in vivo, Sprague-Dawley rats. The settings on record: low calcium diet (0.02%), FIG. 4; for bone calcium mobilization activity: ip. As to the method:
(§1) Intestinal Calcium Transport and Bone Calcium Mobilization Male, weanling Sprague-Dawley rats were placed on Diet 11 (0.47% Ca) diet +AEK oil for one week followed by Diet 11 (0.02% Ca) +AEK oil for 3 weeks. The rats were then switched to a diet containing 0.47% Ca for one week followed by two weeks on a diet containing 0.02% Ca. Dose administration began during the last week on 0.02% calcium diet. Four consecutive ip doses were given approximately 24 hours apart. Twenty-four hours after the last dose, blood was collected from the severed neck and the concentration of serum calcium determined as a measure of bone calcium mobilization. The first 10 cm of the intestine was also collected for intestinal calcium transport analysis using the everted gut sac method.

The subject of a further test is HL-60 cells. Kind of test: HL-60 differentiation (nitro blue tetrazolium reduction). It counts as cell-based, human. As to conditions: for EC50: HL-60 cells, 4 days, read-out: EC50, HL60 differentiation. As to the method: The study drugs were dissolved in ethanol and the concentrations determined using UV spectrophotometry. Serial dilutions were prepared so that a range of drug concentrations could be tested without changing the final concentration of ethanol (≦0.2%) present in the cell cultures.
Human promyelocytic leukemia (HL60) cells were grown in RPMI-1640 medium containing 10% fetal bovine serum. The cells were incubated at 37° C. in the presence of 5% CO2.
HL60 cells were plated at 1.2×10^5 cells/ml. Eighteen hours after plating, cells in duplicate were treated with drug. Four days later, the cells were harvested and a nitro blue tetrazolium reduction assay was performed (Collins et al., 1979; J. Exp. Med. 149:969-974). The percentage of differentiated cells was determined by counting a total of 200 cells and recording the number that contained intracellular black-blue formazan deposits. Verification of differentiation to monocytic cells was determined by measuring phagocytic activity (data not shown).

For test [2], the system named is 24-hydroxylase (24 Ohase) gene promoter in ROS 17/2.8 (bone) cells. Nature of the test: In vitro transcription assay (24-hydroxylase promoter luciferase reporter). It counts as cell-based. The settings on record: FIG. 3; for EC50: ROS 17/2.8 cells, 24-hydroxylase promoter luciferase, 16 h, read-out: EC50, transcriptional activity in bone cells; for transcription of the 24-hydroxylase gene, times less potent than 1,25-(OH)2D3: relative to 1,25-(OH)2D3. As for the experimental part:
In vitro Transcription Assay
Transcription activity was measured in ROS 17/2.8 (bone) cells that were stably transfected with a 24-hydroxylase (24 Ohase) gene promoter upstream of a luciferase reporter gene (Arbour et al., 1998). Cells were given a range of doses. Sixteen hours after dosing the cells were harvested and luciferase activities were measured using a luminometer.
RLU=relative luciferase units.

For test [3], the target named is T1, full-length recombinant rat vitamin D receptor (Rattus norvegicus, UniProt P13053).
T1 construct: Full-length recombinant rat receptor was expressed in E. coli; histidine tag (C); made in house; host or cells: E. coli BL21 (DE3) Codon Plus RIL
T1 sequence (P13053 1-423): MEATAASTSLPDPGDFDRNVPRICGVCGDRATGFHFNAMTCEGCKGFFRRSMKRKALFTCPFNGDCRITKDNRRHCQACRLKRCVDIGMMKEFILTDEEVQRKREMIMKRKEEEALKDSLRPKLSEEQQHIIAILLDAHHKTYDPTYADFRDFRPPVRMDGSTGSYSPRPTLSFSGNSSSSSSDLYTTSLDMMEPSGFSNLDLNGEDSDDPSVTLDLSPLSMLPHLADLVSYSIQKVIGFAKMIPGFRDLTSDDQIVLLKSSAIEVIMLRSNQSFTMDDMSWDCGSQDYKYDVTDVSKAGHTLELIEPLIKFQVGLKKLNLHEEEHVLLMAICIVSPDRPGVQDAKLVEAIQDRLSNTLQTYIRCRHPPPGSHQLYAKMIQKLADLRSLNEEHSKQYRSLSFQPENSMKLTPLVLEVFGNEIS
Nature of the test: Vitamin D receptor competitive binding with [3H]-1,25-(OH)2D3. From the text: Vitamin D Receptor Binding
Full-length recombinant rat receptor was expressed in E. coli BL2 1 (DE3) Codon Plus RIL cells and purified to homogeneity using two different column chromatography systems. The first system was a nickel affinity resin that utilizes the C-terminal histidine tag on this protein. The protein that was eluted from this resin was further purified using ion exchange chromatography (S-Sepharose Fast Flow). Aliquots of the purified protein were quick frozen in liquid nitrogen and stored at −80° C. until use. For use in binding assays, the protein was diluted in TEDK50 (50 mM Tris, 1.5 mM EDTA, pH 7.4, 5 mM DTT, 150 mM KCl) with 0.1% Chaps detergent. The receptor protein and ligand concentration were optimized such that no more than 20% of the added radiolabeled ligand was bound to the receptor.
Radiolabeled and unlabeled ligands were added to 100 mcl of the diluted protein at a final ethanol concentration of ≦10%, mixed and incubated overnight on ice to reach binding equilibrium. The following day, 100 mcl of hydroxylapatite slurry (50%) was added to each tube and mixed at 10-minute intervals for 30 minutes. The hydroxylapaptite was collected by centrifugation and then washed three times with Tris-EDTA buffer (50 mM Tris, 1.5 mM EDTA, pH 7.4) containing 0.5% Titron X-100. After the final wash, the pellets were transferred to scintillation vials containing 4 ml of Biosafe II scintillation cocktail, mixed and placed in a scintillation counter. Total binding was determined from the tubes containing only radiolabeled ligand.

The test system of test [4] is intestinal calcium transport. Nature of the test: Intestinal calcium transport (everted gut sac method). It counts as in vivo, Sprague-Dawley rats. As to conditions: FIG. 5. As to the method:
as §1

Turning to `C=C1/C(=C\C=C2/CCC[C@]3(C)[C@@H]([C@H](C)CCCC(C)(C)O)CC[C@@H]23)C[C@@H](O)C[C@@H]1O` [1,25-(OH)2D3, 1α,25-dihydroxyvitamin D3, reference compound], the “bone calcium mobilization activity” value in test [1] (260 pmol/day) is “significant activity”. In addition, the serum calcium levels entry in test [1] (all the dosages tested) is “increased serum calcium levels at all the dosages tested”. Besides, the EC50 in the test on HL-60 cells (FIG. 2) stood at 3 nM; in test [2] it was 0.2 nM.
`C[C@H](CCCC(C)(C)O)C1CCC2/C(=C/C=C3/C[C@@H](O)C4=CCO[C@@H]4C3)CCC[C@@]21C` (stereo partly shown) [A-REV5, 1,2-dihydrofuran-25-hydroxy-19-nor-vitamin D3]: the Ki in test [3] (full-length recombinant rat vitamin D receptor, FIG. 1, read-out: Ki, competition with [3H]-1,25-(OH)2D3 for binding to VDR) worked out at 0.6 nM. In test [3] (relative to 1,25-(OH)2D3, FIG. 1), the “VDR affinity, times less potent than 1,25-(OH)2D3” value is reported as roughly 10 times. Further, the “reduced VDR binding affinity” value in test [3] (relative to native hormone) is listed as “about 1 log”. For the same compound, the “bone calcium mobilization activity” value in test [1] (7,020 pmol/day for 4 consecutive days) is reported as “no bone calcium mobilization activity; also recorded: did not result in any mobilization of bone calcium”. The EC50 amounted to 30 nM in the test with HL-60 cells (Homo sapiens, 96 h, FIG. 2) and 8 nM in test [2]. Moreover, the “HL-60 differentiation, times less potent than 1,25-(OH)2D3” value in the test with HL-60 cells (relative to 1,25-(OH)2D3, FIG. 2) is listed as roughly 10 times. Besides, the “reduced cell differentiation potency” value in the test with HL-60 cells (relative to native hormone) is given as 1 log. Besides, the “intestinal calcium transport activity” value in test [4] (780 pmol/day for 4 consecutive days, compared with 1,25-(OH)2D3 at 780 pmol/day) is recorded as “almost the same activity as 1,25-(OH)2D3”. For the same compound, the “intestinal calcium transport activity, overall compared with 1,25-(OH)2D3” value in test [4] (in vivo, no dose stated) is given as “promotes intestinal calcium transport in a dose dependent manner; also recorded: only slightly lower potency in vivo”. Besides, the “transcription of the 24-hydroxylase gene, times less potent than 1,25-(OH)2D3” value in test [2] is recorded as “about 40 times”; in test [2] (listed as Ia), 40 times.
